Assay type in all cases: biochemical
In assay [1] the target is T1, PIP4K2A (Homo sapiens, UniProt P48426).
T1 sequence (P48426 1-406): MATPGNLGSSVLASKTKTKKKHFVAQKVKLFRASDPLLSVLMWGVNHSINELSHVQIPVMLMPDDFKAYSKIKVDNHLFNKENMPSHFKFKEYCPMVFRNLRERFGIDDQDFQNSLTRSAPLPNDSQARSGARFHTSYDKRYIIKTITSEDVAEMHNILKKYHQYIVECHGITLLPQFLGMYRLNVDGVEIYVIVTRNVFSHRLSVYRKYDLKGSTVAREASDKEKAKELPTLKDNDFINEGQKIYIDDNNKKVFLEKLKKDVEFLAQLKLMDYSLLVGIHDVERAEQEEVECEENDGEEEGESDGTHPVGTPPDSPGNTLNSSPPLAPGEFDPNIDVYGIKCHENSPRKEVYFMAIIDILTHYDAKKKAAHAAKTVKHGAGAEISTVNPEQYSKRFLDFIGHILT
Put plainly: ADP-glo kinase assay PIP4K 2A (Table 3). Set-up: made in house; host or cells: E. coli. The settings on record: compounds listed under IC50 bins. In a few lines: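 Full-length PIP4K2A (4 nM in the mix) with 100 μM PI(5)P diC8 pre-incubated 15 min with compound in MOPS pH 7.2, 25 mM MgCl2; ATP added (60 μM solution), 1 h at RT. ADP formed read by ADP-Glo luminescence; 10-point curves versus DMSO controls fitted to IC50.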
For orientation: ADP-Glo turns the ADP formed in a reaction into a luminescent signal.

The next assay concerns the target T2, PIP4K2B (Homo sapiens, UniProt P78356).
T2 construct: made in house; host or cells: E. coli
T2 sequence (P78356 1-416): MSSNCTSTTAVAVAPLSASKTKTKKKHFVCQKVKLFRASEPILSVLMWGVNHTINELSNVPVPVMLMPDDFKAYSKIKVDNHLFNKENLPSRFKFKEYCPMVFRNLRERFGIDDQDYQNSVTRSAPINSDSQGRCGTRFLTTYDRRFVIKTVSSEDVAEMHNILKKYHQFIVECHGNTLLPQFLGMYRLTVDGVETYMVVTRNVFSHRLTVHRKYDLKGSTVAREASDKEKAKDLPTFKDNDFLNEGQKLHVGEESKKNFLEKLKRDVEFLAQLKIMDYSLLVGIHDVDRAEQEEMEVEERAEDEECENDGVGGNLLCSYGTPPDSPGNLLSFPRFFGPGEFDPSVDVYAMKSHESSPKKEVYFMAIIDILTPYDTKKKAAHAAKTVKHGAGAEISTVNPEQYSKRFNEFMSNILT
Put plainly: Trans-FI P kinase assay PIP4K2B (Table 4). The note with it: compounds listed under IC50 bins; read-out: Trans-FI P kinase assays: PIP4K2B IC50. In a few lines:
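Transcreener FI detection (Ex 584/Em 623) of GDP, converted via calibration curve, gives IC50 from residual activity versus log concentration (highest 4.8 μM). Reaction: 80 μM PI5P plus DOPE carrier, 100 μM GTP, 5 nM GST-tagged enzyme, pH 7.3 HEPES with MgCl2 and 5% DMSO, 2 h after 1 h enzyme-compound preincubation at 27° C.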

The target of assay [2] is T1, PIP4K2A. The experiment in a line: Kinase Assay PIP4K2 A (Table 2). Also noted: 4 nM PIP4K2A (full length protein, SignalChem); purchased SignalChem. The note with it: compounds listed under IC50 bins. In a few lines:
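Full-length PIP4K2A (4 nM in the added mix, with 100 μM PI(5)P diC8) pre-incubated 15 min at RT with compounds (10-point, 3-fold series) in 20 mM MOPS pH 7.2, 25 mM MgCl2, 0.005% Tween 20. ATP added from a 60 μM solution, 1 h at RT; ADP-Glo luminescence, IC50 fitted from % inhibition versus DMSO.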

Structures are written as SMILES.

Consider `CN(C)C/C=C/C(=O)N1CCC(C(=O)Nc2cccc(CCC(=O)Nc3cncc(Nc4ccc(-c5ccc(C(=O)N(C)C)cc5)cn4)c3)c2)CC1` [Example 110, (E)-1-(4-(dimethylamino)but-2-enoyl)-N-(3-(3-((5-((5-(4-(dimethylcarbamoyl)phenyl)pyridin-2-yl)amino)pyridin-3-yl)amino)-3-oxopropyl)phenyl)piperidine-4-carboxamide], for which the IC50 against PIP4K2A [1] was 0.1 to 1 µM; on PIP4K2B, greater than 1 µM; against PIP4K2A [2], 0.1 to 1 µM.
Regarding `CN(C)C(=O)c1ccc(-c2ccc(Nc3cncc(NC(=O)CCc4cccc(NC(=O)CCCCCN)c4)c3)nc2)cc1` [Example 111, 4-(6-((5-(3-(3-(6-aminohexanamido)phenyl)propanamido)pyridin-3-yl)amino)pyridin-3-yl)-N,N-dimethylbenzamide], the IC50 against PIP4K2A [1] lay within 0.001 to 0.01 µM; on PIP4K2B, 0.01 to 0.1 µM; at PIP4K2A [2], 0.001 to 0.01 µM.
Regarding `CN(C)C/C=C/C(=O)NCCCCCC(=O)Nc1cccc(CCC(=O)Nc2cncc(Nc3ccc(-c4ccc(C(=O)N(C)C)cc4)cn3)c2)c1` [Example 112, (E)-4-(6-((5-(3-(3-(6-(4-(dimethylamino)but-2-enamido)hexanamido)phenyl)propanamido)pyridin-3-yl)amino)pyridin-3-yl)-N,N-dimethylbenzamide], the figures for the IC50 at PIP4K2A [1], at PIP4K2B and on PIP4K2A [2] were 0.1 to 1 µM, greater than 1 µM and 0.1 to 1 µM, respectively.
Take `CN(C)C(=O)c1ccc(-c2ccc(Nc3cncc(NC(=O)c4cccc(NC(=O)CCOCCOCCN)c4)c3)nc2)cc1` [Example 113, 4-(6-((5-(3-(3-(2-(2-aminoethoxy)ethoxy)propanamido)benzamido)pyridin-3-yl)amino)pyridin-3-yl)-N,N-dimethylbenzamide]: the IC50 against PIP4K2A [1], on PIP4K2B and on PIP4K2A [2] was 0.01 to 0.1 µM throughout.
Regarding `CN(C)C/C=C/C(=O)NCCOCCOCCC(=O)Nc1cccc(C(=O)Nc2cncc(Nc3ccc(-c4ccc(C(=O)N(C)C)cc4)cn3)c2)c1` [Example 114, (E)-N,N-dimethyl-4-(6-((5-(3-(2-methyl-6-oxo-10,13-dioxa-2,7-diazahexadec-4-en-16-amido)benzamido)pyridin-3-yl)amino)pyridin-3-yl)benzamide], the IC50 against PIP4K2A [1] was in the range of 0.1 to 1 µM; at PIP4K2B, 0.01 to 0.1 µM; on PIP4K2A [2], 0.01 to 0.1 µM.
For the compound `CN(C)C(=O)c1ccc(-c2ccc(Nc3cncc(NC(=O)c4ccc(N)cc4)c3)nc2)cc1` [Example 116, 4-(6-((5-(4-aminobenzamido)pyridin-3-yl)amino)pyridin-3-yl)-N,N-dimethylbenzamide], the IC50 on PIP4K2A [1], on PIP4K2B and against PIP4K2A [2] was 0.01 to 0.1 µM throughout.
`CN(C)C/C=C/C(=O)Nc1ccc(C(=O)Nc2cncc(Nc3ccc(-c4ccc(C(=O)N(C)C)cc4)cn3)c2)cc1` [Example 117, (E)-4-(6-((5-(4-(4-(dimethylamino)but-2-enamido)benzamido)pyridin-3-yl)amino)pyridin-3-yl)-N,N-dimethylbenzamide]: the IC50 on PIP4K2A [1] was in the range of 0.01 to 0.1 µM; at PIP4K2B it was 0.01 to 0.1 µM; against PIP4K2A [2], 0.001 to 0.01 µM.
Consider `CN(C)C(=O)c1ccc(-c2ccc(Nc3cncc(NC(=O)CCc4ccc(N)cc4)c3)nc2)cc1` [Example 118, 4-(6-((5-(3-(4-aminophenyl)propanamido)pyridin-3-yl)amino)pyridin-3-yl)-N,N-dimethylbenzamide], for which the IC50 against PIP4K2A [1], at PIP4K2B and at PIP4K2A [2] was 0.01 to 0.1 µM throughout.
Take `CN(C)C/C=C/C(=O)Nc1ccc(CCC(=O)Nc2cncc(Nc3ccc(-c4ccc(C(=O)N(C)C)cc4)cn3)c2)cc1` [Example 119, (E)-4-(6-((5-(3-(4-(4-(dimethylamino)but-2-enamido)phenyl)propanamido)pyridin-3-yl)amino)pyridin-3-yl)-N,N-dimethylbenzamide]: the figures for the IC50 at PIP4K2A [1], on PIP4K2B and on PIP4K2A [2] were 0.01 to 0.1 µM, 0.01 to 0.1 µM and 0.001 to 0.01 µM, respectively.
For `COC(=O)Nc1cncc(Nc2ccc(-c3ccc(C(=O)N(C)C)cc3)cn2)c1` [Example 120, methyl(5-((5-(4-(dimethylcarbamoyl)phenyl)pyridin-2-yl)amino)pyridin-3-yl)carbamate], the IC50 at PIP4K2A [1] was 0.1 to 1 µM; on PIP4K2B, 0.01 to 0.1 µM; at PIP4K2A [2], 0.01 to 0.1 µM.
With `CN(C)C(=O)c1ccc(-c2ccc(Nc3cncc(NC(=O)c4ccccc4)c3)nc2)cc1` [Example 121, 4-(6-((5-benzamidopyridin-3-yl)amino)pyridin-3-yl)-N,N-dimethylbenzamide], the IC50 at PIP4K2A [1], on PIP4K2B and at PIP4K2A [2] was 0.01 to 0.1 µM each time.
With `CN(C)C(=O)c1ccc(-c2ccc(Nc3cncc(NC(=O)CC#N)c3)nc2)cc1` [Example 122, 4-(6-((5-(2-cyanoacetamido)pyridin-3-yl)amino)pyridin-3-yl)-N,N-dimethylbenzamide], the IC50 on PIP4K2A [1] fell in the range of 0.1 to 1 µM; at PIP4K2B, 0.01 to 0.1 µM; at PIP4K2A [2] it was 0.01 to 0.1 µM.
For `CN(C)C(=O)c1ccc(-c2ccc(Nc3cncc(NC(=O)Cc4ccccc4)c3)nc2)cc1` [Example 123, N,N-dimethyl-4-(6-((5-(2-phenylacetamido)pyridin-3-yl)amino)pyridin-3-yl)benzamide], the IC50 against PIP4K2A [1] was 0.1 to 1 µM; at PIP4K2B, 0.01 to 0.1 µM; on PIP4K2A [2] it was 0.01 to 0.1 µM.
For the compound `CNC(=O)Nc1cncc(Nc2ccc(-c3ccc(C(=O)N(C)C)cc3)cn2)c1` [Example 124, N,N-dimethyl-4-(6-((5-(3-methylureido)pyridin-3-yl)amino)pyridin-3-yl)benzamide], the IC50 on PIP4K2A [1], on PIP4K2B and at PIP4K2A [2] was 0.01 to 0.1 µM in each case.
Regarding `CN(C)CC(=O)Nc1cncc(Nc2ccc(-c3ccc(C(=O)N(C)C)cc3)cn2)c1` [Example 125, 4-(6-((5-(2-(dimethylamino)acetamido)pyridin-3-yl)amino)pyridin-3-yl)-N,N-dimethylbenzamide], the values for the IC50 at PIP4K2A [1], at PIP4K2B and against PIP4K2A [2] were 0.1 to 1 µM, 0.01 to 0.1 µM and 0.1 to 1 µM, respectively.
Consider `CN(C)C(=O)c1ccc(-c2ccc(Nc3cncc(NC(=O)C4CCOCC4)c3)nc2)cc1` [Example 126, N-(5-((5-(4-(dimethylcarbamoyl)phenyl)pyridin-2-yl)amino)pyridin-3-yl)tetrahydro-2H-pyran-4-carboxamide], for which the IC50 is 0.1 to 1 µM against PIP4K2A [1], 0.01 to 0.1 µM on PIP4K2B and 0.01 to 0.1 µM on PIP4K2A [2].
For `CN(C)C(=O)c1ccc(-c2ccc(Nc3cncc(NS(C)(=O)=O)c3)nc2)cc1` [Example 127, N,N-dimethyl-4-(6-((5-(methylsulfonamido)pyridin-3-yl)amino)pyridin-3-yl)benzamide], the IC50 against PIP4K2A [1], on PIP4K2B and on PIP4K2A [2] was 0.01 to 0.1 µM in each case.
On to `CN(C)C(=O)c1ccc(-c2ccc(Nc3cncc(NC(=O)c4ccccn4)c3)nc2)cc1` [Example 128, N-(5-((5-(4-(dimethylcarbamoyl)phenyl)pyridin-2-yl)amino)pyridin-3-yl)picolinamide], for which the IC50 fell in the range of 0.1 to 1 µM at PIP4K2A [1], 0.01 to 0.1 µM at PIP4K2B and 0.01 to 0.1 µM on PIP4K2A [2].
As to `CN(C)C(=O)c1ccc(-c2ccc(Nc3cncc(NC(=O)c4cccnc4)c3)nc2)cc1` [Example 129, N-(5-((5-(4-(dimethylcarbamoyl)phenyl)pyridin-2-yl)amino)pyridin-3-yl)nicotinamide], the figures for the IC50 against PIP4K2A [1], on PIP4K2B and on PIP4K2A [2] were 0.1 to 1 µM, 0.01 to 0.1 µM and 0.01 to 0.1 µM, respectively.
In the case of `CN(C)C(=O)c1ccc(-c2ccc(Nc3cncc(NC(=O)c4ccncc4)c3)nc2)cc1` [Example 130, N-(5-((5-(4-(dimethylcarbamoyl)phenyl)pyridin-2-yl)amino)pyridin-3-yl)isonicotinamide], the IC50 at PIP4K2A [1] fell in the range of 0.1 to 1 µM; on PIP4K2B it was 0.01 to 0.1 µM; against PIP4K2A [2], 0.01 to 0.1 µM.

Broadly, the IC50 is the concentration at which inhibition is half-maximal.

Source of the values: US11667651B2, “Aminopyridine derivatives as phosphatidylinositol phosphate kinase inhibitors” (HiberCell, Inc., priority 2017, dated 2023).
